Assays:
HIV-1 PR [1] = biological target: T1, HIV-1 PR (Human immunodeficiency virus type 1 group M subtype B, UniProt P04585); format: cell-based; parameters: expressed in transfected cells; host or cells: SupT1 T-cell clone (lentiviral transduction; rtTA/mCherry, 5xUAS-eGFP reporter, inducible PR/Gal4); conditions: for concentration resulting in eGFP activation: analyzed 50 hrs, range tested 1 nM to 20 μM
Procedure: Finally, cells were infected with virus encoding the reporter, rtTA and inducible wild-type PR/Gal4 (pH-TRE-PR/Gal4) to test the ability for this system in T-cells to indicate the levels of PR activity.
To determine the optimal time point for the analysis of eGFP expression in the presence of inhibitor, cells were activated with Dox and analyzed by flow cytometry 4, 8, 12, 16, 20, 25, 50, or 75 hours later. Six-well plates containing 250K cells per well in 3 mL media were treated either with DMSO alone as control, or 1 μg/mL Dox and 10 μM Indinavir.
(§1) The range chosen extended from 1 nM to 20 μM.
Flow Cytometry was performed on a BD FACSAria™ with 488 nm and 633 nm lasers. Data was collected on FACSDiva 6.1.1™ software and then exported to FlowJo™. eGFP expression was detected in the FITC channel and mCherry expression was detected on the PE-Texas-Red channel. Cells were first gated for size and granularity (FSC-A vs SSC-A) followed by doublet gating (FSC-A vs FSC-W and SSC-A vs. SSC-W). Sorted populations were gated on PE-TexasRed vs FITC plot. 250K cells were collected for each sample into 0.5 mL fetal calf serum (FCS) and 1 mL RPMI. Cells were then spun down at 1500 RPM and resuspended in fresh media in 6-well plates. Cells were allowed to grow for at least seven days to allow for expansion and loss of previously activated eGFP expression.
FIG. 21A (upper left) schematically illustrates exemplary constructs utilized to generate infectious particles for the transduction of SupT1 cells with the various assay elements. FIG. 21B (right) illustrates data from a cell sorting assay comprising: a previously generated stable SupT1 cell line expressing rtTA and mCherry was infected with the reporter virus (generated from pH-5×UAS-eGFP), or co-infected with the reporter virus plus a virus encoding an inducible assay element (generated from pH-TRE-Gal4, pH-TRE-PR/Gal4, or pH-TRE-PRm/Gal4). Cells were then activated with either 1 μg/mL of Dox alone, or were pre-incubated for 5 minutes with 10 μM Indinavir following activation with 1 μg/mL Dox. […] Finally, single SupT1 cells from the purified population were sorted into 96 well plates and grown as a monoclonal population and then tested for optimal responses to assay induction of eGFP under appropriate conditions. FIG. 21C (lower left) illustrates images of fluorescence microscopy of SupT1 clones expressing the assay elements. Cells expressing various elements of the assay were treated as indicated with DMSO, DMSO+1 μg/mL Dox, or […] Dox+10 μM Indinavir and analyzed 24 hours later by fluorescence microscopy for mCherry and eGFP expression. D. Quantification of eGFP expression of clonal SupT1 cells treated with DMSO, DMSO+1 μg/mL Dox, or 1 μg/mL Dox+10 μM Indinavir.
(§2) FIG. 22 graphically illustrates data determining the optimal conditions for activating the assay to screen for PR inhibition. FIG. 22A graphically illustrates a Doxycycline titration. Clonal SupT1 cells harboring an inducible Gal4, PR/Gal4 or PRm/Gal4 were pre-incubated in a 96 well plate with either DMSO or 10 μM Indinavir and then either left untreated, or activated with […] of Dox. Cells were analyzed by flow cytometry and gated to determine the number of cells positive for eGFP expression. FIG. 22B graphically illustrates a time course of eGFP Induction in response to Doxycyline activation in the presence of DMSO or a PI.

[2] = system: tet-responsive element (TRE); assay: Doxycycline activation titration of clonal SupT1 cells (Tet-On, eGFP readout); format: cell-based
Procedure: In order to optimize the assay for maximal Gal4, PR/Gal4 or PRm/Gal4 induction, we analyzed the effect of increasing levels of Dox. Cells with 0, 50, 100, 250, 500, 750, 1,000, and 2,000 ng/mL Dox were either treated with 10 uM DMSO or 10 uM Indinavir and analyzed 32 hours later. TRE-Gal4 cells reached saturation with Doxycycline at about 1,000 ng/mL whether Indinavir was present or not. […] Again, as with transiently transfected 293 cells, TRE-PR/Gal4 cells had little to non-detectable eGFP expression at any given Dox concentration in the absence of 10 μM Indinavir.
as §2, with “PI. SupT1 clones harboring Gal4, PR/Gal4, or PRm/Gal4 were pre-incubated in a 96 well plate with either DMSO or 10 μM Indinavir and then activated with 1 μg/mL Dox. Cells were analyzed at either 4, 8, 12, 16, 20, 25, 50 or 75 hours by flow cytometry and gated for eGFP positive expression.” for “PI.”

HIV-1 PR [3] = biological target: T1, HIV-1 PR; format: cell-based; parameters: expressed in transfected cells; host or cells: SupT1 T-cell clone (lentiviral transduction; rtTA/mCherry, 5xUAS-eGFP reporter, inducible PR/Gal4); conditions: clonal SupT1, 96-well plates, pre-incubation with 1 μM PI, activation at 1 μg/mL Dox
HIV-1 PR [4] = biological target: T1, HIV-1 PR; format: cell-based; parameters: expressed in transfected cells; rtTA/mCherry, 5xUAS-eGFP reporter, inducible PR/Gal4; conditions: HEK293T cells pre-treated with 10 uM inhibitor, co-transfected with reporter and pcDNA-PR/Gal4
Procedure: It was of critical importance to verify the ability for the PR/Gal4 fusion to activate the reporter eGFP by the addition of PR inhibitors. For that purpose, 293T cells were pre-treated with 10 μM Indinavir and then co-transfected with reporter and pcDNA-PR/Gal4 vectors.
293T cells were transfected as follows. 15 μl of 2 mg/mL Polyethylenimine linear 25 kD (Polysciences, Inc.) were added to 125 μl of DMEM in a 1.8 ml Eppendorf tube. 3 g of each DNA was added drop-wise to each tube. Tubes were mixed and incubated for 20 min at RT. This mixture was then added drop-wise to 293T cells in a 10 cm plate at approximately 60-75% confluence. Cells were then analyzed by fluorescence microscopy and/or flow cytometry 24 hrs post transfection.
Top Panel: Fluorescence microscopy of eGFP expression in HEK293T cells 24 hours post transfection with the reporter vector (pFR), or co-transfection with the reporter vector plus either the Gal4, PR/Gal4, or PRm/Gal4 vectors. Bottom panel: HEK293T cells were analyzed by flow cytometry at 24 hours post transfection with the same conditions top panel. Gates were drawn to determine the ability to identify cells with an active PI. […] Quantification of eGFP expression in HEK293T transfected with various assay elements. The numbers of cells under various conditions were quantified for eGFP levels indicative of PR inhibition. Results shown are an average of 3 experiments.

SupT1 cells = assay: Cell death in the reporter T-cell clones during PI concentration response; conditions: for concentration resulting in significant cell death, with decline in number of eGFP positive cells: human, 50 h
Procedure: as §1
Cells were then analyzed 50 hrs later for eGFP expression as determined by flow cytometry on a BD FACSAria.

[5] = SupT1 PR/Gal4 clone, 1 μg/mL Dox, 50 hrs
[6] = SupT1 PR/Gal4 clone, 1 μg/mL Dox

COC(=O)N[C@H](C(=O)N[C@@H](Cc1ccccc1)[C@@H](O)CN(Cc1ccc(-c2ccccn2)cc1)NC(=O)[C@@H](NC(=O)OC)C(C)(C)C)C(C)(C)C [Atazanavir]
effect on PR inhibition (ranking among tested PIs) (HIV-1 PR [1]; [5]): strongest effect
concentration resulting in eGFP activation (HIV-1 PR [1]; [6]): 1 nM

CC(C)CN(C[C@@H](O)[C@H](Cc1ccccc1)NC(=O)O[C@H]1CO[C@H]2OCC[C@H]21)S(=O)(=O)c1ccc(N)cc1 [Darunavir]
effect on PR inhibition (ranking among tested PIs) (HIV-1 PR [1]; [5]): strongest effect
concentration resulting in eGFP activation (HIV-1 PR [1]; [6]): 1 nM

C[C@H]1c2cccc(O)c2C(=O)C2=C(O)[C@]3(O)C(=O)C(C(N)=O)=C(O)[C@@H](N(C)C)[C@@H]3[C@@H](O)[C@@H]21 [Doxycycline]
concentration at saturation of eGFP induction, TRE-Gal4 cells ([2]; clonal SupT1 TRE-Gal4, with or without 10 uM Indinavir, 32 hours): about 1,000 ng/mL
concentration at maximal eGFP induction, TRE-PR/Gal4 cells ([2]; clonal SupT1 TRE-PR/Gal4, pre-incubation with 10 μM Indinavir, 32 hours): around 500 ng/mL
concentration at saturation of eGFP induction, TRE-PRm/Gal4 cells ([2]; clonal SupT1 TRE-PRm/Gal4, uninhibited and Indinavir-treated, 32 hours): around 250 ng/mL
concentration at which activation is saturated (FIG. 33) ([2]; clonal SupT1 cells pre-incubated with DMSO or 1 μM Indinavir): around 1 μg/mL

CC(C)(C)NC(=O)[C@@H]1CN(Cc2cccnc2)CCN1C[C@@H](O)C[C@@H](Cc1ccccc1)C(=O)N[C@H]1c2ccccc2C[C@H]1O [Indinavir]
concentration inducing nearly full activation of reporter (HIV-1 PR [1]; [5]): 5 µM
levels of reporter activation at low concentrations (ranking among tested PIs) (HIV-1 PR [1]; [5]): lowest levels
activation of PR/Gal4 clones (FIG. 31) (HIV-1 PR [1]; SupT1 PR/Gal4 clones, Dox 1 μg/mL, PI 1 μM, <1% background): ~90%
time of initial induction of eGFP expression (HIV-1 PR [1]; clonal SupT1, 1 μg/mL Dox and 10 μM inhibitor): 8 h
eGFP expression (% of cells) at 50 hours (HIV-1 PR [1]; clonal SupT1, 1 μg/mL Dox and 10 μM inhibitor, by 50 hours): ~100%
eGFP expression (HIV-1 PR [1]; non-clonal SupT1 cells with reporter, rtTA and pH-TRE-PR/Gal4, 1 μg/mL Dox and 10 μM inhibitor): large induction
time at which activation of clones reaches max (FIG. 34) (HIV-1 PR [3]): around 48 hrs
eGFP expression (reporter activation by PR/Gal4) (HIV-1 PR [4]): drastic induction

Cc1cccc(C)c1OCC(=O)N[C@@H](Cc1ccccc1)[C@@H](O)C[C@H](Cc1ccccc1)NC(=O)[C@H](C(C)C)N1CCCNC1=O [Lopinavir]
concentration resulting in significant cell death, with decline in number of eGFP positive cells (SupT1 cells): around 1 uM

Cc1c(O)cccc1C(=O)N[C@@H](CSc1ccccc1)[C@H](O)CN1C[C@H]2CCCC[C@H]2C[C@H]1C(=O)NC(C)(C)C [Nelfinavir]
concentration resulting in significant cell death, with decline in number of eGFP positive cells (SupT1 cells): around 1 uM

CC(C)(C)NC(=O)[C@@H]1C[C@@H]2CCCC[C@@H]2CN1C[C@@H](O)[C@H](Cc1ccccc1)NC(=O)[C@H](CC(N)=O)NC(=O)c1ccc2ccccc2n1 [Saquinavir]
concentration with significant cell death / decline in number of eGFP positive cells (SupT1 cells; SupT1 PR/Gal4 clone, 50 hrs, maximal level tested): 20 µM
